# “And” between values parts separate entries of the source, which are not always exact repeats. Equal values may be shown once. “Also recorded” adds a separate entry of the source.
# Columns and labels:
# [1] = molecular target: T1, recombinant rat α4β2γ2 GABAA receptors (Rattus norvegicus, UniProt P28471); assay: Whole-cell patch-clamp, modulation of GABA (EC20)-induced currents in transfected HEK 293 cells, α4β2γ2; type: cell-based
# T1 construct: expressed in transfected cells; host or cells: HEK 293
# T1 sequence (P28471 36-552): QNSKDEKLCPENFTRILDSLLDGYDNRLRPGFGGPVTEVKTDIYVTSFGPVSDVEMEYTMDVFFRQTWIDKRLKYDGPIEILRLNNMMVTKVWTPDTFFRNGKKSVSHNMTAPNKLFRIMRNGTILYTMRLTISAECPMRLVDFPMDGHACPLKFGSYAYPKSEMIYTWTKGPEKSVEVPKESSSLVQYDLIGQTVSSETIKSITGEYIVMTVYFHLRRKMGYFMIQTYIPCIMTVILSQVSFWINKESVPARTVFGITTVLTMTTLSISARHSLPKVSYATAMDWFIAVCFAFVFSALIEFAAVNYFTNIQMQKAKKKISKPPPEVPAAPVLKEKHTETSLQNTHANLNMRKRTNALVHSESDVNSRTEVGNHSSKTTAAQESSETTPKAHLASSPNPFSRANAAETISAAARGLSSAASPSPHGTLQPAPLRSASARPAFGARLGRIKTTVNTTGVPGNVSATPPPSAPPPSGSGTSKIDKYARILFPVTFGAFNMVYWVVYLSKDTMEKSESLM
# Method: (§1) For electrophysiological recording HEK-293 cells were passaged and replated on 12-mm glass coverslips located in 9.6-cm plastic dishes filled with 10 ml of Minimum Essential Medium (MEM, Gibco) supplemented with 158 mg/l sodium bicarbonate, 2 mM glutamine (Gibco), 100 U/ml penicillin-streptomycin (Gibco), and 10% foetal calf serum (Gibco). Cultures were maintained at 37° C. in a humidified […]/5% CO2 atmosphere for 2-3 days.
# (§2) Transfection with recombinant rat GABAA receptors was carried out as described in detail (Korpi and Lüddens, 1993, Lüddens and Korpi, 1995b). Briefly, HEK 293 cells were transfected in triple combinations using the phosphate precipitation method with rat GABAA receptor cDNAs in eukaryotic expression vectors (Pritchett, 1990) for the α, β and γ subunits. For optimal receptor expression, final concentrations (μg vector DNA per 9.6 cm tissue culture plate) were: α1, 2; α2 4.8; α3, 1.2; α4, 10; α5, 0.8; β2, 0.4; and γ2S, 0.3. The γ2S variant is abbreviated γ2 in the remainder of the text. To identify transfected cells all subunit combinations were co-transfected with 1 μg per plate of pNI-EGFP.
# Two days after transfection single coverslips containing HEK 293 cells were placed in a recording chamber mounted on the movable stage of a fluorescence microscope (Olympus IX70) and perfused with a defined saline solution containing (in mM): 130 NaCl, 5.4 KCl, 2 CaCl2, 2 MgSO4, 10 glucose, 5 sucrose, and 10 HEPES (free acid), pH adjusted to 7.35 with about 35 mM NaOH. Transfected cells were identified by their green fluorescence due to the expression of the pNI-EGFP vector and ligand-mediated membrane currents of these cells were studied in the whole-cell configuration of the patch-clamp technique (Hamil et al., 1981). […]
# Seal resistances >1 GΩ were routinely obtained by applying gentle suction to the pipettes. Membrane rupture was monitored electrically as an increase in capacity. […]
# In all cells recorded the presence of the γ2 subunit in the heteropentamere was monitored by the application of 1 μM zolpidem plus the EC20 of GABA before testing the experimental drugs. […]
# [2] = system: extracellular 5-HT, HIAA and dopamine in the striatum of rats; assay: Microdialysis in the striatum of rats (Example 3); type: in vivo, rat; conditions: 30 mg/kg i.p.
# Method: The day before the experiment, male rats were anaesthetised with chloral hydrate (3.6%, 1 ml/100 g i.p.) and placed in a stereotaxic frame to implant a microdialysis guide cannula (CMA/12, Carnegie Medicine, Sweden). Scalp was incised in the median anterior-posterior direction between lambda and bregma and a small hole was drilled into the skull. The stereotaxic coordinates were AP=+1.0 mm, L=−3.0 mm from bregma and 1.5 mm from the skull surface for the striatum according to the atlas of Paxinos and Watson, (1986) (1). Dental cement (Sinfony(2)) was used to fix the guide cannula and anchor screws to the cranium. During the surgery rectal temperature was maintained at 37° C. using a heating blanket.
# The day before the experiment the microdialysis probe (CMA/12, membrane length 4 mm, Carnegie Medicin, Sweden) was inserted into the striatum through the guide cannula. On the day of experiment the probe was perfused with Ringer solution (148 mM NaCl, 4 mM KCl, 2,4 mM CaCl2, pH=6,0). The flow rate (1 μl/min) allowed to collect 20 μl samples every 20 minutes into microvials. Microvials were stored in a fraction collector (CMA/170) at a temperature of 8° C. until analysed. Using a swivel joint the perfusion arrangement allowed the animal to move freely within a hemispherical bowl. After an adjusting time of one hour 3 consecutive 20-min-fractions were collected to establish a stable basal level of neurotransmitter release.
# Thereafter 30 mg/kg E131-00139 or an equivalent volume of 0.5% tylose/PEG300 9:1, respectively, was administered. Then collecting samples was continued for at least 220 minutes.
# Dialysates were directly analysed by reverse-phase high-performance liquid chromatography with electrochemical detection (HPLC-EC). The samples were separated by a ZORBAX SB-Aq 2.1 mm ID×100 mm column (Agilent Technologies). […]
# Therefore data of each animal were expressed as percentages. Data from dialysates before administering the substances were averaged, and the mean set as 100%; all individual values were calculated accordingly.
# [3] = molecular target: T2, recombinant rat α1β2γ2 GABAA receptors (Rattus norvegicus, UniProt P62813); assay: Whole-cell patch-clamp, modulation of GABA (EC20)-induced currents in transfected HEK 293 cells, α1β2γ2; type: cell-based
# T2 construct: expressed in transfected cells; host or cells: HEK 293
# T2 sequence (P62813 28-455): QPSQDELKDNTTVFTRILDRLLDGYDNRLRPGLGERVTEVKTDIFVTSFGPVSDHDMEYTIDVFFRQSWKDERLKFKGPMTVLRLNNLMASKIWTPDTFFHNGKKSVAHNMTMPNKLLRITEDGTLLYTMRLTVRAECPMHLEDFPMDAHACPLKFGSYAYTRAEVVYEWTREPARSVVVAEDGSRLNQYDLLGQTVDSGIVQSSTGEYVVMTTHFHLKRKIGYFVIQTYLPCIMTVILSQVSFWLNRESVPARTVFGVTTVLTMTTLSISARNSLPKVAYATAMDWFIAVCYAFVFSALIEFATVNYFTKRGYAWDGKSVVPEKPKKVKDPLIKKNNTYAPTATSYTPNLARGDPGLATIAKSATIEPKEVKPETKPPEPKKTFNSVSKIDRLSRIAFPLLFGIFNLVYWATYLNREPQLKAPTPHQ
# Method: as §1, §2
# (§3) Two days after transfection single coverslips containing HEK 293 cells were placed in a recording chamber mounted on the movable stage of a fluorescence microscope (Olympus IX70) and perfused with a defined saline solution containing (in mM): 130 NaCl, 5.4 KCl, 2 CaCl2, 2 MgSO4, 10 glucose, 5 sucrose, and 10 HEPES (free acid), pH adjusted to 7.35 with about 35 mM NaOH. Transfected cells were identified by their green fluorescence due to the expression of the pNI-EGFP vector and ligand-mediated membrane currents of these cells were studied in the whole-cell configuration of the patch-clamp technique (Hamil et al., 1981). Patch-clamp pipettes were pulled from hard borosilicate capillary glass (0.5 mm ID, 1.5 mm OD, Vitrex, Science Products GmbH, Hofheim, Germany) using a horizontal puller (Sutter Instruments, CA, Model P-97) in a multi-stage process.
# (§4) Seal resistances >1 GΩ were routinely obtained by applying gentle suction to the pipettes. Membrane rupture was monitored electrically as an increase in capacity. Pipette capacitance, membrane capacitance, and series resistance were electronically compensated to achieve minimal capacitative transients. A series resistance compensation of >60% was regularly used.
# (§5) In all cells recorded the presence of the γ2 subunit in the heteropentamere was monitored by the application of 1 μM zolpidem plus the EC20 of GABA before testing the experimental drugs.
# (§6) Responses of the cells were recorded by a patch-clamp amplifier (EPC-8, HEKA-Electronic, Lambrecht, Germany) in conjunction with a standard personal computer and the pClamp 8.1 software package (Axon Instruments, Foster City, Calif.). The standard holding-potential for the cells was −40 mV. Whole cell currents were low-pass filtered by an eight-pole Bessel filter at 5 or 3 kHz before being digitised by a Digidata 1322A interface (Axon Instruments, Foster City, Calif.) and recorded by the computer at a sampling rate of at least […].
# (§7) Efficacy, potency, and GABAA receptor a subunit specificity of the new compound ELB139 was tested with the whole cell configuration of the patch-clamp technique by applying increasing drug concentration together with GABA of the approximate EC20 on green fluorescing cells. BZ binding site specificity of the new compound was tested on the same cells in an identical experimental setting with additionally applying 10 μM Ro15-1788.
# serotonine transporters = assay: Uptake of serotonine in a synaptosomal preparation; type: biochemical
# [4] = molecular target: T3, recombinant rat α3β2γ2 GABAA receptors (Rattus norvegicus, UniProt P20236); assay: Whole-cell patch-clamp, modulation of GABA (EC20)-induced currents in transfected HEK 293 cells, α3β2γ2; type: cell-based
# T3 construct: expressed in transfected cells; host or cells: HEK 293
# T3 sequence (P20236 29-493): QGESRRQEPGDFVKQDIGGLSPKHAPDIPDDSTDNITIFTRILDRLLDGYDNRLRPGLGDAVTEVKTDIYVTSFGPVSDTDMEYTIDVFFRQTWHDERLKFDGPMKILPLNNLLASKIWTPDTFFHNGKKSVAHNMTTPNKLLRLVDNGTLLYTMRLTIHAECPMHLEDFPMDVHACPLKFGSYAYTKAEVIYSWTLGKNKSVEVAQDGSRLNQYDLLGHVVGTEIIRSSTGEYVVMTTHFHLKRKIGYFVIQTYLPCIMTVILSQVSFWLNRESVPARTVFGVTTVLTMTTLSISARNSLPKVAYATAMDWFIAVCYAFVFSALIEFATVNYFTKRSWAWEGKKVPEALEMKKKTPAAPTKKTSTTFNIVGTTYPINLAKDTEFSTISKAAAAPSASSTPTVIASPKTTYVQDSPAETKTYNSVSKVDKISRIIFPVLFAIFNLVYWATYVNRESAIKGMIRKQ
# Method: as §1, §2, §3, §4, §5, §6, §7
compound,measurement,setting,value
"O=C1N=C(N2CCCCC2)CN1c1ccc(Cl)cc1 [ELB139, 1-(4-chlorophenyl)-4-piperidinoimidazolin-2-one]",modulation of GABA-induced currents (in words),"[1]; α4-containing receptors, diazepam up to 1 μM, ELB139 at all concentrations tested",unaffected; also recorded: not active
same,EC50,"[1]; α4β2γ2, applied with approximate GABA EC20, read-out: EC50 (ELB139)",> 30 µM
same,HIAA concentration in the striatum,[2],without influencing
same,dopamine concentration in the striatum,[2],did also not influence
same,5-HT concentration in the striatum,[2]; vs tylose vehicle,significantly and unexpectedly increased
same,concentration at which positive current modulation was observable,[3]; α1-containing receptors,0.3 µM
same,maximal positive modulation of GABA-induced current,"[3]; α1-containing receptors, maximum at 30 μM (ELB139), at 1 μM (diazepam)",1.6±0.08 fold and 1.6 fold
same,concentration at which significant agonistic effects were noticeable,[3]; α1β2γ2,about 1 μM
same,EC50,"[3]; α1β2γ2, applied with approximate GABA EC20, read-out: EC50 (ELB139)",3.8 µM
same,effect of 10 μM Ro15-1788 on the current enhancement by the compound,"[3]; α1β2γ2, co-applied 10 μM Ro15-1788 (flumazenil)",completely abolished
same,Potentiation* (ELB139),"[3]; α1β2γ2, with GABA EC20, graphically determined",1.6 ± 0.08
same,uptake of serotonine,serotonine transporters,no effect
same,concentrations at which positive current modulation was observable,[4]; α3-containing receptors,above 30 nM
same,highest efficacy / maximal stimulation of GABA-induced current,"[4]; α3-containing receptors, ELB139 at concentrations above 0.3 μM, diazepam at 1 μM",1.3±0.07 fold and 1.3 fold
same,effect of 10 μM Ro15-1788 on the current enhancement by the compound,"[4]; α3β2γ2, co-applied 10 μM Ro15-1788 (flumazenil)",completely abolished
same,Potentiation* (ELB139),"[4]; α3β2γ2, with GABA EC20, graphically determined",1.3 ± 0.07
same,EC50,"[4]; α3β2γ2, with GABA EC20, value marked * = graphically determined, read-out: EC50 (ELB139)",0.06 µM

# From patent publication US20050032863A1, “Method of treating or preventing central nervous system disorders with compounds having selectivity for the alpha 3 subunit of the benzodiazepine receptor” (priority 2003, published 2005)
